Data as given in patent US9717756B2, “Method of treating traumatic brain or spinal cord injury with biomembrane sealing agent and magnesium compounds” (Warsaw Orthopedic, Inc., priority 2006, dated 2017).

Assays:
[1] = test system: controlled cortical impact model of brain injury (TBI); test: Morris Water Maze test of cognitive function after controlled cortical impact TBI; type: in vivo, rat
Description: Male Sprague-Dawley rats (Harlan Sprague-Dawley, Indianapolis, Ind.), weighing 350-450 grams each were given free access to food and water before the experiment. The animals were anesthetized with halothane (1% in 70%/30% NO2/O2 by mask).
Animals were anesthetized with isoflorane and placed in a stereotaxic frame in the supine position. A 6 mm craniotomy located approximately midway between bregma and lambda, just above the somatosensory cortex, was made using a Michele trephine. The skull disk was then removed without disturbing the underlying dura mater. The exposed brain was injured using an electronically controlled piston (5 mm diameter, 65 kdynes). The animals in the “sham” group underwent identical surgical procedures, but the surface of the brain was not impacted.
Following surgery, animals were placed in their home cage and dosing was initiated. Animals were treated with saline (Group 1: sham, Group 2: injured), PEG (Group 3: injured), magnesium (Group 4: injured) or a combination of PEG and magnesium solutions (Group 5: injured). The PEG solution was composed of PEG3350 at 30% in 0.5% saline (custom made by AAIPharma Developmental Services, Wilmington, N.C.). […] The magnesium solution was diluted in saline 1:1 before intravenous injection as recommended by the manufacturer. In the cases of combined PEG+Mg combined treatments, animal received the PEG and magnesium components from two individual solutions.
In more details, each animal received 2 injections: • Group 1: Sham—1.23 ml/kg of saline solution followed by 1.23 ml/kg of saline solution; • Group 2: Injured—1.23 ml/kg of saline solution followed by 1.23 ml/kg of saline solution; • Group 3: Injured—2.33 ml/kg of PEG solution followed by 0.12 ml/kg of saline solution; • Group 4: Injured—0.12 ml/kg of magnesium solution followed by 2.33 ml/kg of saline solution; • Group 5: Injured—2.33 ml/kg of PEG solution followed by 0.12 ml/kg of magnesium solution. […]
The effects of PEG, magnesium sulfate and combined treatment on recovery of cognitive function following TBI were evaluated using the Morris Water Maze Test. […]

[2] = test system: carrageenan-induced hind paw acute inflammation; test: Carrageenan hind paw acute inflammation, mechanical allodynia (up-down method); type: in vivo, rat; conditions: Example 7, 24 hours after carrageenan
Description: Animals were treated with saline (0.5% final), indomethacin, PEG, magnesium or combined PEG+magnesium solutions. Each animal received 2 injections, the first one 1 hour following carrageenan injection and the second injection 6 hours later. The total dose of PEG and magnesium chloride administered was of 2 and 0.135 g/kg (body weight) respectively. There were 10 animals per group.
Indomethacin (Fluka, cat. 57413, lot 450544/1) was dissolved in 25% hydroxyl-propyl beta cyclodextrin (hpBCD) by gentle heating and stirring. The PEG solution was composed of PEG3350 at 30% in 0.5% saline, the magnesium solution was composed of magnesium chloride at 2% and the combined PEG+magnesium solution was composed of 30% PEG3350+2% Magnesium Chloride (custom made by AAIPharma Developmental Services, Wilmington, N.C.). […]
Twenty-four hours following carrageenan injection into the left paw, the same paw was tested for mechanical allodynia. Baseline and post-treatment values for non-noxious mechanical sensitivity were evaluated using 8 Semmes-Weinstein filaments (Stoelting, Wood Dale, Ill., USA) with varying stiffness (0.4, 0.7, 1.2, 2.0, 3.6, 5.5, 8.5, and 15 g) according to the up-down method (Chaplan et al., 1994). […]
To evaluate the significance of difference between experimental groups, data were analyzed using an unpaired, two-tailed t statistical test with confidence intervals of 95%.

pain = conditions: human, in vivo; cited from earlier work
[3] = test system: spinal cord contusion at T10 (SCI); test: Locomotor recovery, modified 12-point BBB scale, after spinal cord contusion (dural impact model); type: in vivo, rat; conditions: Example 4; iv, 15 min and 6 h post-injury; total 2 g/kg PEG, 0.12 g/kg magnesium sulfate
Description: Sprague-Dawley female rats (200-225 gm) received a spinal cord contusion using the Precision Scientific Inc pneumatic impactor. Prior to surgery, rats were assigned to different treatment groups based on a randomized block design so that on any given surgery day all treatments would be included. The rats were anesthetized with ketamine (80 mg/kg) and xylazine (10 mg/kg) before a laminectomy will be performed at the 10th thoracic vertebra (T10). The vertebral column was stabilized with angled clamps on the upper thoracic (T8) and lumbar (T11) levels and the impactor with a tip diameter of 2 mm was delivered at approximately 50 kd onto the exposed, intact dura overlying the dorsal spinal cord. The impactor was immediately removed, the wound irrigated with saline, and the muscle and skin openings sutured together. Female animals were used due to the paralysis associated with the injury and ease of voiding the bladder.
Following surgery, animals were placed in their home cage and dosing was initiated. Animals were treated with saline (Group 1: sham, Group 2: injured), PEG (Group 3: injured), magnesium (Group 4: injured) or a combination of PEG and magnesium solutions (Group 5: injured). […]
(§1) To evaluate the significance of difference between experimental groups, data were analyzed using an unpaired, two-tailed t statistical test with confidence intervals of 95%. […]

[4] = test system: spinal cord contusion at T10 (SCI); test: Spinal cord lesion volume after SCI contusion (eriochrome cyanine sections); type: in vivo, rat; conditions: Example 4, sacrificed on day 14, total 2 g/kg PEG, 0.12 g/kg magnesium sulfate
Description: Following surgery, animals were placed in their home cage and dosing was initiated. […]
At the end of the study, the spinal cords were extracted and fixed in 4% paraformaldehyde. […] Tissue sparing was determined by computed image analysis be from 10 evenly spaced sections through the injured T10 segment. […]

[5] = test system: clip-compression injury at T4 (SCI); test: Locomotor recovery, 21-point BBB open field test, after clip-compression SCI; type: in vivo, rat; conditions: Example 5; day 7 post-SCI; total 0.6 g/kg magnesium sulfate iv
Description: Wistar female rats weighing 200-250 grams received a controlled clip-compression injury at T4. This experimental model has been previously described in details in Gris et al., 2004. Briefly, animals were premedicated with diazepam (3.5 mg/kg, i.p.) and atropine (0.05 mg/kg, s.c.) in order to facilitate a smooth induction of anesthesia by 4% halothane and maintenance with 1.0-1.5% halothane. The T4 spinal cord segment was exposed by dorsal laminectomy and a modified aneurysm clip, calibrated to 50 grams compression was passed extradurally around the cord and spring released for 60 seconds. Nerve roots were not disrupted during the clip compression.
Following SCI, animals were placed in their home cage and dosing was initiated. […]
Locomotor recovery was assessed by the 21-point Basso, Beatie and Bresnahan (BBB) open field locomotor test (Basso et al., 1995), from day 3-21 after injury. Locomotor function was evaluated by 2 blinded investigators at each testing period.
as §1
Following SCI, rats were treated with saline, PEG, Mg or a combined solution of PEG and Mg. Locomotor recovery was assessed by the 21-point BBB score system from day 3-25 post-injury.

[6] = test system: neuropathic pain after SCI; test: Mechanical allodynia (neuropathic pain score, Semmes-Weinstein monofilament) after SCI; type: in vivo, rat; conditions: Example 6; up to 3 weeks post-injury
Description: Animals were prepared as described in Example 3.
Animals were tested for the development of neuropathic pain before and up to 3 weeks post-injury. Neuropathic pain occurrence and severity was evaluated by the response of the animal to a stimulus that is normally not painful or allodynia. Briefly, a modified Semmes-Weinstein monofilament (Stoelting Co, Wood Dale, Ill.) calibrated to generate a force of 15 mN was applied to the dorsal trunk at dermatomes corresponding to spinal segments immediately rostral to the lesion level (T1-T3). The monofilament was applied 10 times for 3 seconds, with each stimulus being separated by a 5 second interval, and the number of avoidance responses out of a possible 10 were recorded. Avoidance responses were defined as flinching, escape, vocalization, or abnormal aggressive behaviors. The scoring system used to monitor mechanical allodynia has been presented in details in Gris et al., 2004. Mechanical allodynia testing was conducted twice per week and the 2 tests were averaged for each animal and reported as a weekly pain score.
To evaluate the significance of difference between experimental groups, data were analyzed using an unpaired, two-tailed t statistical test with confidence intervals of 95%. The Welch's modification was also used to analyze the motor recovery to take in account the significant variability in the control group. […]

stroke = conditions: intravenous, up to 12 hours following stroke onset; 2589 patients; cited from earlier work
TBI = conditions: trial initiated in 1999; cited from earlier work

[Cl-].[Cl-].[Mg+2] [magnesium chloride]
effect on cognitive recovery after TBI ([1]; Example 2, total 1.4 g/kg PEG or 0.230 mmol/kg magnesium chloride): no significant effect

[Cl-].[Cl-].[Mg+2] [Magnesium, magnesium chloride]
effect on the loss of cognitive functions following brain injury ([1]; summary statement in the description): no effect | effect on the pain score relative to animals treated with saline ([2]; total 2 g/kg PEG or 0.135 g/kg magnesium chloride): no significant effect | duration of analgesic effect (pain): ≤ 4 h

COc1ccc2c(c1)c(CC(=O)O)c(C)n2C(=O)c1ccc(Cl)cc1 [Indomethacin]
mean pain score (mechanical allodynia) ([2]; carrageenan-saline 3.4+/−0.5, sham 12.7+/−1.1, higher is better): 5.6+/−0.9

O=S(=O)([O-])[O-].[Mg+2] [Mg, magnesium sulfate]
effect on cognitive functions following TBI ([1]; Example 1, iv, 15 min and 6 h post-injury, total 1.4 g/kg PEG or 0.230 mmol/kg magnesium sulfate): no effect | effect on motor functions following SCI (12-point BBB score) relative to SCI-Saline group [3]: no effect | reduction of the lesion volume relative to control group (SCI-Saline) [4]: 33% | effect on motor recovery (21-point BBB) [5]: Some improvement | effect on the development of neuropathic pain after SCI [6]: no significant effect | clinical improvement after stroke (stroke): no significant improvement | preliminary data of clinical trial in TBI patients (TBI): negative
